Measurements reported in PubChem BioAssay AID1963981 (Molecular Pharmacology Branch, DTP, NCI, 2024).

System: 354836-022-R-J1-PDC multicell spheroid viability
Assay: Anticancer human tumor 354836-022-R-J1-PDC patient-derived head and neck squamous cell carcinoma cell line growth inhibition [PI3K]
Details: for IC50: curve of first compound; for viability, T/C: stronger effect = lower value; active means viability on the fitted dose curve at most 10% of control; inactive means the rest
Method in brief: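 Combination activity was assessed by viability in multicellular tumor spheroids carrying HUVEC and MSC components. Agents were tested with PI3K inhibitors from a Cmax-based top dose (or 10 microM) downward in half-log increments.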

[1] = second compound 0.00316 µM, first compound 0.0316 µM
[2] = second compound 0.00316 µM, first compound 0.1 µM
[3] = second compound 0.00316 µM, first compound 0.316 µM
[4] = second compound 0.00316 µM, first compound 1 µM
[5] = second compound 0.00316 µM, first compound 3.16 µM
[6] = second compound 0.00316 µM, first compound 10 µM
[7] = second compound 0.01 µM, first compound 0.0316 µM
[8] = second compound 0.01 µM, first compound 0.1 µM
[9] = second compound 0.01 µM, first compound 0.316 µM
[10] = second compound 0.01 µM, first compound 1 µM
[11] = second compound 0.01 µM, first compound 3.16 µM
[12] = second compound 0.01 µM, first compound 10 µM
[13] = second compound 0.0316 µM, first compound 0.0316 µM
[14] = second compound 0.0316 µM, first compound 0.1 µM
[15] = second compound 0.0316 µM, first compound 0.316 µM
[16] = second compound 0.0316 µM, first compound 1 µM
[17] = second compound 0.0316 µM, first compound 3.16 µM
[18] = second compound 0.0316 µM, first compound 10 µM
[19] = second compound 0.1 µM, first compound 0.0316 µM
[20] = second compound 0.1 µM, first compound 0.1 µM
[21] = second compound 0.1 µM, first compound 0.316 µM
[22] = second compound 0.1 µM, first compound 1 µM
[23] = second compound 0.1 µM, first compound 3.16 µM
[24] = second compound 0.1 µM, first compound 10 µM
[25] = second compound 0.316 µM, first compound 0.0316 µM
[26] = second compound 0.316 µM, first compound 0.1 µM
[27] = second compound 0.316 µM, first compound 0.316 µM
[28] = second compound 0.316 µM, first compound 1 µM
[29] = second compound 0.316 µM, first compound 3.16 µM
[30] = second compound 0.316 µM, first compound 10 µM
[31] = second compound 1 µM, first compound 0.0316 µM
[32] = second compound 1 µM, first compound 0.1 µM
[33] = second compound 1 µM, first compound 0.316 µM
[34] = second compound 1 µM, first compound 1 µM
[35] = second compound 1 µM, first compound 3.16 µM
[36] = second compound 1 µM, first compound 10 µM
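Further: spheroids exposed to agents for seven days before the viability read.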

CC(Cn1ccc(-c2ccc(C#N)c(Cl)c2)n1)NC(=O)c1cc(C(C)O)[nH]n1 (centres undefined) + COc1c(OCCCN2CCOCC2)ccc2c3n(c(=NC(=O)c4cnc(N)nc4)nc12)CCN3
< 0.0316 µM: IC50 (second compound 0.1 µM) | IC50 (second compound 0.316 µM) | IC50 (second compound 1 µM)
active: viability, T/C [31] 2.74% | viability, T/C [32] 1.7% | viability, T/C [33] 1.89% | viability, T/C [34] 2.26% | viability, T/C [35] 2.15% | viability, T/C [36] 2.19%
> 10 µM: IC50 (second compound 0.00316 µM) | IC50 (second compound 0.01 µM) | IC50 (second compound 0.0316 µM)
inactive: viability, T/C [1] 119% | viability, T/C [2] 99.5% | viability, T/C [3] 106% | viability, T/C [4] 104% | viability, T/C [5] 102% | viability, T/C [6] 86.3% | viability, T/C [7] 98.8% | viability, T/C [8] 104% | viability, T/C [9] 92.5% | viability, T/C [10] 113% | viability, T/C [11] 105% | viability, T/C [12] 80% | viability, T/C [13] 69.6% | viability, T/C [14] 82.7% | viability, T/C [15] 85.2% | viability, T/C [16] 86.9% | viability, T/C [17] 88.5% | viability, T/C [18] 67.5% | viability, T/C [19] 48.4% | viability, T/C [20] 52.5% | viability, T/C [21] 52% | viability, T/C [22] 57.1% | viability, T/C [23] 58.1% | viability, T/C [24] 51.9% | viability, T/C [25] 11.8% | viability, T/C [26] 18.3% | viability, T/C [27] 15.1% | viability, T/C [28] 20.9% | viability, T/C [29] 15.2% | viability, T/C [30] 18.2%

C[C@@H](NC(=O)c1ncnc(N)c1Cl)c1ncc(C(=O)Nc2cc(C(F)(F)F)c(Cl)cn2)s1 + COc1c(OCCCN2CCOCC2)ccc2c3n(c(=NC(=O)c4cnc(N)nc4)nc12)CCN3
active: viability, T/C [31] 2.2% | viability, T/C [32] 1.73% | viability, T/C [33] 1.92% | viability, T/C [34] 1.84% | viability, T/C [35] 2.33% | viability, T/C [36] 1.65%
< 0.0316 µM: IC50 (second compound 0.316 µM) | IC50 (second compound 1 µM)
inactive: viability, T/C [1] 91.8% | viability, T/C [2] 112% | viability, T/C [3] 96.9% | viability, T/C [4] 109% | viability, T/C [5] 98.5% | viability, T/C [6] 97% | viability, T/C [7] 105% | viability, T/C [8] 101% | viability, T/C [9] 96.5% | viability, T/C [10] 119% | viability, T/C [11] 102% | viability, T/C [12] 78.1% | viability, T/C [13] 76% | viability, T/C [14] 81.8% | viability, T/C [15] 86.5% | viability, T/C [16] 86.9% | viability, T/C [17] 84.2% | viability, T/C [18] 71.5% | viability, T/C [19] 58.2% | viability, T/C [20] 43.7% | viability, T/C [21] 55.6% | viability, T/C [22] 55% | viability, T/C [23] 55.1% | viability, T/C [24] 47.9% | viability, T/C [25] 11.2% | viability, T/C [26] 14.4% | viability, T/C [27] 13.4% | viability, T/C [28] 18% | viability, T/C [29] 24.4% | viability, T/C [30] 9.94%
> 10 µM: IC50 (second compound 0.00316 µM) | IC50 (second compound 0.01 µM) | IC50 (second compound 0.0316 µM) | IC50 (second compound 0.1 µM)
